Columns and labels:
Assay in all cases: relative viability (nuclei count vs DMSO), 5 days (fraction); higher = more cells survive
IA-LM = system: IA-LM
Summary of the method: (§1)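 Relative viability divides the nuclei count in treated wells by that in vehicle wells. Lung cancer cell lines were seeded in 1536-well plates, dosed by pin tool the next day, and fixed and stained after 5 days in one step with final 0.05% Triton X-100, 1% formaldehyde and 1 ug/ml Hoechst. Dosing was a single drug or a fixed anchor-drug dose plus five library-drug doses (not always all listed) in √10 steps, and values are medians of duplicate plates imaged at 4×.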

LC-2-ad = system: LC-2-ad
Summary of the method: as §1

Calu-6 = system: Calu-6
Summary of the method: as §1

EKVX = system: EKVX
Summary of the method: as §1

NCI-H1703 = system: NCI-H1703
Summary of the method: as §1

A549 = system: A549
Summary of the method: as §1

ChaGo-K-1 = system: ChaGo-K-1
Summary of the method: as §1

EBC-1 = system: EBC-1
Summary of the method: as §1

NCI-H1299 = system: NCI-H1299
Summary of the method: as §1

NCI-H1666 = system: NCI-H1666
Summary of the method: as §1

Cc1csc(=NC2CCCCC2)n1/N=C/c1ccc(O)c(O)c1O [MIM1] + CS(=O)(=O)N1CCN(Cc2cc3nc(-c4cccc5[nH]ncc45)nc(N4CCOCC4)c3s2)CC1 [Pictilisib] (partner 1 µM)
relative viability (IA-LM; first compound 0.2 µM): 0.36
relative viability (IA-LM; first compound 0.6325 µM): 0.328
relative viability (IA-LM; first compound 2 µM): 0.261
relative viability (IA-LM; first compound 6.325 µM): 0.18
relative viability (IA-LM; first compound 20 µM): 0.0832
relative viability (LC-2-ad; first compound 0.2 µM): 0.437
relative viability (LC-2-ad; first compound 0.6325 µM): 0.373
relative viability (LC-2-ad; first compound 2 µM): 0.508
relative viability (LC-2-ad; first compound 6.325 µM): 0.406
relative viability (LC-2-ad; first compound 20 µM): 0.12
relative viability (Calu-6; first compound 0.2 µM): 0.909
relative viability (Calu-6; first compound 0.6325 µM): 0.892
relative viability (Calu-6; first compound 2 µM): 0.942
relative viability (Calu-6; first compound 6.325 µM): 0.499
relative viability (Calu-6; first compound 20 µM): 0.196
relative viability (EKVX; first compound 0.2 µM): 0.477
relative viability (EKVX; first compound 0.6325 µM): 0.365
relative viability (EKVX; first compound 2 µM): 0.463
relative viability (EKVX; first compound 6.325 µM): 0.322
relative viability (EKVX; first compound 20 µM): 0.351
relative viability (NCI-H1703; first compound 0.2 µM): 0.219
relative viability (NCI-H1703; first compound 0.6325 µM): 0.304
relative viability (NCI-H1703; first compound 2 µM): 0.286
relative viability (NCI-H1703; first compound 6.325 µM): 0.177
relative viability (NCI-H1703; first compound 20 µM): 0.182
relative viability (A549; first compound 0.2 µM): 0.508
relative viability (A549; first compound 0.6325 µM): 0.565
relative viability (A549; first compound 2 µM): 0.636
relative viability (A549; first compound 6.325 µM): 0.15
relative viability (A549; first compound 20 µM): 0.0858
relative viability (ChaGo-K-1; first compound 0.2 µM): 0.876
relative viability (ChaGo-K-1; first compound 0.6325 µM): 0.629
relative viability (ChaGo-K-1; first compound 2 µM): 0.863
relative viability (ChaGo-K-1; first compound 6.325 µM): 0.644
relative viability (ChaGo-K-1; first compound 20 µM): 0.265
relative viability (EBC-1; first compound 0.2 µM): 0.352
relative viability (EBC-1; first compound 0.6325 µM): 0.384
relative viability (EBC-1; first compound 2 µM): 0.355
relative viability (EBC-1; first compound 6.325 µM): 0.253
relative viability (EBC-1; first compound 20 µM): 0.191
relative viability (NCI-H1299; first compound 0.2 µM): 0.726
relative viability (NCI-H1299; first compound 0.6325 µM): 0.791
relative viability (NCI-H1299; first compound 2 µM): 0.765
relative viability (NCI-H1299; first compound 6.325 µM): 0.535
relative viability (NCI-H1299; first compound 20 µM): 0.354
relative viability (NCI-H1666; first compound 0.2 µM): 0.605
relative viability (NCI-H1666; first compound 0.6325 µM): 0.398
relative viability (NCI-H1666; first compound 2 µM): 0.476
relative viability (NCI-H1666; first compound 6.325 µM): 0.422
relative viability (NCI-H1666; first compound 20 µM): 0.311

CN1CCN(CCOc2cc(OC3CCOCC3)c3c(Nc4c(Cl)ccc5c4OCO5)ncnc3c2)CC1 [Saracatinib] + C[C@]1(O)C[C@@H](c2nc(-c3ccc4ccc(-c5ccccc5)nc4c3)c3c(N)nccn32)C1 [Linsitinib] (partner 1 µM)
relative viability (IA-LM; first compound 0.02 µM): 0.682
relative viability (IA-LM; first compound 0.2 µM): 0.838
relative viability (IA-LM; first compound 0.6325 µM): 1.43
relative viability (IA-LM; first compound 2 µM): 0.815
relative viability (LC-2-ad; first compound 0.02 µM): 0.971
relative viability (LC-2-ad; first compound 0.6325 µM): 0.689
relative viability (LC-2-ad; first compound 2 µM): 0.541
relative viability (Calu-6; first compound 0.02 µM): 0.95
relative viability (Calu-6; first compound 0.2 µM): 0.824
relative viability (Calu-6; first compound 0.6325 µM): 0.906
relative viability (Calu-6; first compound 2 µM): 0.68
relative viability (EKVX; first compound 0.02 µM): 0.988
relative viability (EKVX; first compound 0.2 µM): 0.861
relative viability (EKVX; first compound 0.6325 µM): 0.866
relative viability (EKVX; first compound 2 µM): 0.318
relative viability (NCI-H1703; first compound 0.02 µM): 1.02
relative viability (NCI-H1703; first compound 0.2 µM): 0.738
relative viability (NCI-H1703; first compound 0.6325 µM): 0.513
relative viability (NCI-H1703; first compound 2 µM): 0.35
relative viability (A549; first compound 0.02 µM): 0.564
relative viability (A549; first compound 0.2 µM): 0.566
relative viability (A549; first compound 0.6325 µM): 0.638
relative viability (A549; first compound 2 µM): 0.357
relative viability (EBC-1; first compound 0.02 µM): 0.94
relative viability (EBC-1; first compound 0.2 µM): 0.771
relative viability (EBC-1; first compound 0.6325 µM): 1.07
relative viability (EBC-1; first compound 2 µM): 0.982
relative viability (NCI-H1299; first compound 0.02 µM): 0.992
relative viability (NCI-H1299; first compound 0.2 µM): 0.791
relative viability (NCI-H1299; first compound 0.6325 µM): 0.979
relative viability (NCI-H1299; first compound 2 µM): 0.655
relative viability (NCI-H1666; first compound 0.02 µM): 0.81
relative viability (NCI-H1666; first compound 0.2 µM): 0.909
relative viability (NCI-H1666; first compound 0.6325 µM): 0.815
relative viability (NCI-H1666; first compound 2 µM): 0.844

Cc1csc(=NC2CCCCC2)n1/N=C/c1ccc(O)c(O)c1O [MIM1] + C[C@]1(O)C[C@@H](c2nc(-c3ccc4ccc(-c5ccccc5)nc4c3)c3c(N)nccn32)C1 [Linsitinib] (partner 1 µM)
relative viability (IA-LM; first compound 0.2 µM): 0.563
relative viability (IA-LM; first compound 0.6325 µM): 0.36
relative viability (IA-LM; first compound 2 µM): 0.502
relative viability (IA-LM; first compound 6.325 µM): 0.0829
relative viability (IA-LM; first compound 20 µM): 0.105
relative viability (LC-2-ad; first compound 0.2 µM): 0.794
relative viability (LC-2-ad; first compound 0.6325 µM): 0.744
relative viability (LC-2-ad; first compound 2 µM): 0.856
relative viability (LC-2-ad; first compound 6.325 µM): 0.547
relative viability (LC-2-ad; first compound 20 µM): 0.132
relative viability (Calu-6; first compound 0.6325 µM): 0.918
relative viability (Calu-6; first compound 2 µM): 0.897
relative viability (Calu-6; first compound 6.325 µM): 0.561
relative viability (Calu-6; first compound 20 µM): 0.286
relative viability (EKVX; first compound 0.2 µM): 1.03
relative viability (EKVX; first compound 0.6325 µM): 0.867
relative viability (EKVX; first compound 2 µM): 0.958
relative viability (EKVX; first compound 6.325 µM): 0.631
relative viability (EKVX; first compound 20 µM): 0.667
relative viability (NCI-H1703; first compound 0.2 µM): 0.759
relative viability (NCI-H1703; first compound 0.6325 µM): 1.31
relative viability (NCI-H1703; first compound 2 µM): 0.701
relative viability (NCI-H1703; first compound 6.325 µM): 0.144
relative viability (NCI-H1703; first compound 20 µM): 0.095
relative viability (A549; first compound 0.2 µM): 0.564
relative viability (A549; first compound 0.6325 µM): 0.638
relative viability (A549; first compound 2 µM): 0.618
relative viability (A549; first compound 6.325 µM): 0.504
relative viability (A549; first compound 20 µM): 0.515
relative viability (EBC-1; first compound 0.2 µM): 0.921
relative viability (EBC-1; first compound 0.6325 µM): 0.829
relative viability (EBC-1; first compound 2 µM): 0.871
relative viability (EBC-1; first compound 6.325 µM): 0.605
relative viability (EBC-1; first compound 20 µM): 0.318
relative viability (NCI-H1299; first compound 0.2 µM): 0.98
relative viability (NCI-H1299; first compound 0.6325 µM): 0.93
relative viability (NCI-H1299; first compound 2 µM): 0.963
relative viability (NCI-H1299; first compound 6.325 µM): 0.919
relative viability (NCI-H1299; first compound 20 µM): 0.667
relative viability (NCI-H1666; first compound 0.2 µM): 0.791
relative viability (NCI-H1666; first compound 0.6325 µM): 0.753
relative viability (NCI-H1666; first compound 2 µM): 0.732
relative viability (NCI-H1666; first compound 6.325 µM): 0.606
relative viability (NCI-H1666; first compound 20 µM): 0.526

Source: the supplement of paper PMC10307832
